Results from patent US8314138B2, “Pyrazole derivative as SCD1 inhibitors for the treatment of diabetes” (Novartis AG, priority 2006, dated 2012).

target: T1, stearoyl-CoA desaturase (SCD1) (Mus musculus, UniProt P13516); assay: SCD microsomal assay: release of 3H2O from [9,10-3H]stearoyl-CoA in mouse liver microsomes; type: biochemical; settings: 15 min incubation, 25° C.
T1 construct: Male ICR outbread mice, on a high-carbohydrate, low fat diet; from tissue; host or cells: liver microsomes of male ICR mice on a high-carbohydrate, low fat diet
T1 sequence (P13516 1-355): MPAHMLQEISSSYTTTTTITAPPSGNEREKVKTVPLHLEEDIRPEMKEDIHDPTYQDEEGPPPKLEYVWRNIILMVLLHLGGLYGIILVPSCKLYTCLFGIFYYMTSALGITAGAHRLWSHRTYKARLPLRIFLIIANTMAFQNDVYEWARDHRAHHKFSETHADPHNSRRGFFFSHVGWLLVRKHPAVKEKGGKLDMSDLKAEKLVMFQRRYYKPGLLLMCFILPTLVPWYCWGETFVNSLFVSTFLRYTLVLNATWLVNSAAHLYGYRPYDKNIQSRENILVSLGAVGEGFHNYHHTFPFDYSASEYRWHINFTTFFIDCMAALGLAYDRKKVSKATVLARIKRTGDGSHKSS
Excerpt: The identification of compounds of the invention as SCD inhibitors was readily accomplished using the SCD enzyme and microsomal assay procedure described in Shanklin J. and Summerville C., Proc. Natl. Acad. Sci. USA (1991), Vol. 88, pp. 2510-2514.
Measuring Stearoyl-CoA Desaturase Inhibition Activity of a Test Compound Using Mouse Liver Microsomes
The identification of compounds of the invention as SCD inhibitors was readily accomplished using the SCD microsomal assay procedure described in Shanklin J. and Summerville C., Proc. Natl. Acad. Sci. USA (1991), Vol. 88, pp. 2510-2514, which is incorporated herein by reference in its entirety.
Preparation of Mouse Liver Microsomes:
Male ICR outbread mice, on a high-carbohydrate, low fat diet, under light halothane (15% in mineral oil) anesthesia are sacrificed by exsanguination during periods of high enzyme activity. Livers are immediately rinsed with cold 0.9% NaCl solution, weighed and minced with scissors. All procedures are performed at 4° C. unless specified otherwise. Livers are homogenized in a solution (1/3 w/v) containing 0.25 M sucrose, 62 mM potassium phosphate buffer (pH 7.0), 0.15 M KCl, 15 mM N-acetylcysteine, 5 mM MgCl2, and 0.1 mM EDTA using 4 strokes of a Potter-Elvehjem tissue homogenizer. The homogenate is centrifuged at 10,400×g for 20 min to eliminate mitochondria and cellular debris. The supernatant is filtered through a 3-layer cheesecloth and centrifuged at 105,000×g for 60 min. The microsomal pellet is gently resuspended in the same homogenization solution with a small glass/teflon homogenizer and stored at −70° C. The absence of mitochondrial contamination is enzymatically assessed. The protein concentration is measured using bovine serum albumin as the standard.
Incubation of Mouse Liver Microsomes with Test Compounds:
Desaturase activity is measured as the release of ^3H2O from [9,10-^3H]stearoyl-CoA. Reactions per assay point conditions are as follows: 2 μL 1.5 mM stearoyl-CoA, 0.25 μL 1 mCi/mL ^3H stearoyl CoA, 10 μL 20 mM NADH, 36.75 μL 0.1 M PK buffer (K2HPO4/NaH2PO4, pH 7.2). The test compound or control solution is added in a 1 μL volume. Reactions are started by adding 50 μL of microsomes (1.25 mg/mL). The plates are mixed and after 15 min incubation on a heating block (25° C.), the reactions are stopped by the addition of 10 μL 60% PCA. An aliquot of 100 μL is then transferred to a filter plate pretreated with charcoal and the plate centrifuged at 4000 rpm for 1 minute. The flow through containing the ^3H2O released by the SCD1 desaturation reaction is added to scintillation fluid and the radioactivity measured in a Packard TopCount. The data is analyzed to identify the IC50 for test compounds and reference compounds. […] The activity was defined in terms of % SCD enzyme activity remaining at the desired concentration of the test compound or as the IC50 concentration. The IC50 (affinity) of the example compounds toward the stearoyl-CoA desaturase is comprised between around 20 μM and 0.0001 μM or between around 5 μM and 0.0001 μM or between around 1 μM and 0.0001 μM.

IC50 [µM] | Structure (SMILES)
0.071 | Cc1nc(-c2ccn(CCCc3ccccc3)n2)sc1C(=O)NCc1ccccc1 [Example 37, 4-methyl-2-[1-(3-phenyl-propyl)-1H-pyrazol-3-yl]-thiazole-5-carboxylic acid benzylamide]
0.172 | Cc1nc(-c2ccn(Cc3ccc(S(C)(=O)=O)cc3)n2)sc1C(=O)NCc1cccnc1 [Example 66, 2-[1-(4-methanesulfonyl-benzyl)-1H-pyrazol-3-yl]-4-methyl-thiazole-5-carboxylic acid (pyridin-3-ylmethyl)amide]
0.049 | Cc1nc(-c2ccn(CCN(C)c3ccccc3)n2)sc1C(=O)NCc1cccnc1 [Example 79, 4-methyl-2-{1-[2-(methyl-phenylamino)-ethyl]-1H-pyrazol-3-yl}-thiazole-5-carboxylic acid (pyridin-3-ylmethyl)amide]
0.096 | COc1ccc(CCn2ccc(-c3nc(C)c(C(=O)NCc4ccc(F)cc4)s3)n2)cc1 [Example 87, 2-{1-[2-(4-Methoxy-phenyl)-ethyl]-1H-pyrazol-3-yl}-4-methyl-thiazole-5-carboxylic acid 4-fluoro-benzylamide]

Further lines, the compound ahead of its results:

Structure (SMILES) | IC50 [µM]
Cc1nc(-c2cncc(CCc3ccccc3)n2)sc1C(=O)NCc1ccccc1 [Example 4, 4-methyl-2-(6-phenethyl-pyrazin-2-yl)-thiazole-5-carboxylic acid benzylamide] | 0.042
Cc1nc(-c2cncc(N(C)CCCc3ccccc3)n2)sc1C(=O)NCc1ccc(F)cc1 [Example 16, 4-methyl-2-{6-[methyl-(3-phenyl-propyl)-amino]-pyrazin-2-yl}-thiazole-5-carboxylic acid 4-fluoro-benzylamide] | 0.164
COc1ccc(CN(C)c2cncc(-c3nc(C)c(C(=O)NCc4ccc(F)cc4)s3)n2)cc1 [Example 22, 2-{6-[(4-methoxy-benzyl)-methyl-amino]-pyrazin-2-yl}-4-methyl-thiazole-5-carboxylic acid 4-fluoro-benzylamide] | 0.098
Cc1nc(-c2cncc(N(C)Cc3ccc(F)cc3)n2)sc1C(=O)NCc1ccccc1 [Example 29, 2-{6-[(4-fluoro-benzyl)-methyl-amino]-pyrazin-2-yl}-4-methyl-thiazole-5-carboxylic acid benzylamide] | 0.124
Cc1nc(-c2ccn(Cc3ccc(C#N)cc3)n2)sc1C(=O)NCc1cccnc1 [Example 52, 2-[1-(4-cyano-benzyl)-1H-pyrazol-3-yl]-4-methyl-thiazole-5-carboxylic acid (pyridin-3-ylmethyl)amide] | 0.074
Cc1nc(-c2ccn(CCC3CC3)n2)sc1C(=O)NCc1ccc(F)cc1 [Example 85, 2-[1-(2-cyclopropyl-ethyl)-1H-pyrazol-3-yl]-4-methyl-thiazole-5-carboxylic acid 4-fluoro-benzylamide] | 0.147
